From US20240383886A1, “Protein Tyrosine Phosphatase Degraders and Methods of Use Thereof” (CALICO LIFE SCIENCES LLC, priority 2019, published 2024)

Legend:
PTPN2 [1] = biological target: T1, PTPN2 (Homo sapiens, UniProt P17706); assay: HiBiT-Degradation 293T.109 PTPN2 (Nano-Glo HiBiT Lytic Assay); format: cell-based; settings: 293T.109 (HiBiT-PTPN2) cells, 24.0 hours
T1 construct: expressed in transfected cells; host or cells: 293T (293T.109 HiBiT-PTPN2 line; parental 293T WT from ATCC)
T1 sequence (P17706 1-415): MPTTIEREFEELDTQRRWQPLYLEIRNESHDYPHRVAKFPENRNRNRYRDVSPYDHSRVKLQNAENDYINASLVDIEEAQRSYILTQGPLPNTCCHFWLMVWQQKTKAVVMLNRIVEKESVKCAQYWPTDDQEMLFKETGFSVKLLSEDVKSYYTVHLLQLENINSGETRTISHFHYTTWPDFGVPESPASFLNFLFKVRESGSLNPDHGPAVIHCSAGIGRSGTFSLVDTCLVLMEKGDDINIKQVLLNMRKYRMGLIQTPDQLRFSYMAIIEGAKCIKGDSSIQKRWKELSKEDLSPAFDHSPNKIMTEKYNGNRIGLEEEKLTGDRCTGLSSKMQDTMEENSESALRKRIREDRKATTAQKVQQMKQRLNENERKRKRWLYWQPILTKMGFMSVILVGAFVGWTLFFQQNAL
Description: Dulbecco's modified Eagle medium (DMEM) without phenol red and fetal bovine serum (FBS) were purchased from Gibco (Grand Island, NY, USA). Nano-Glo® HiBIT Lytic Assay System was purchased from Promega (Madison, WI, USA). 293T.109 (HiBiT-PTPN2) cell line was generated by ectopically expressing PTPN2 with N-terminal HiBiT fusion tag in 293T WT cell line purchased from ATCC (Manassas, VA, USA). Cell culture flasks and 384-well microplates were acquired from VWR (Radnor, PA, USA).
PTPN2 degradation was determined based on quantification of luminescent signal using Nano-Glo® HiBIT Lytic Assay kit. Test compounds were added to the 384-well plate from a top concentration of 10 μM with 11 points, half log titration in duplicates. 293T.109 cells were added into 384-well plates at a cell density of 5000 cells per well. The plates were kept at 37° C. with 5% CO2 for 24 hours. The cells treated in the absence of the test compound were the negative control and the cells without Nano-Glo® HiBiT Lytic reagent were the positive control. After 24-hour incubation, Nano-Glo® HiBIT Lytic Assay reagents were added to the cells. Luminescence was acquired on EnVision™ Multilabel Reader (PerkinElmer, Santa Clara, CA, USA).

PTPN2 [2] = assay: HiBiT-Degradation B16F10.4 PTPN2; format: cell-based; settings: B16F10.4 cells, 24.0 hours

SMILES	DC50 (PTPN2 [1])	DC50 (PTPN2 [2])
O=C1CCC(N2Cc3c(OCC(=O)N4CCC(C(=O)N5CC(Oc6ccc7cc(O)c(N8CC(=O)NS8(=O)=O)c(F)c7c6)C5)CC4)cccc3C2=O)C(=O)N1 (centres unmarked) [Example 32]	200 to 1000 nM	200 to 1000 nM
O=C1CCC(N2Cc3c(NCC(=O)N4CC(C(=O)NCCOc5ccc6cc(O)c(N7CC(=O)NS7(=O)=O)c(F)c6c5)C4)cccc3C2=O)C(=O)N1 (centres unmarked) [Example 36]	200 to 1000 nM	200 to 1000 nM
CC(C)(Nc1cccc2c1C(=O)N(C1CCC(=O)NC1=O)C2=O)c1cn(CCOCCC(=O)NCCOc2ccc3cc(O)c(N4CC(=O)NS4(=O)=O)c(F)c3c2)nn1 (centres unmarked) [Example 37]	≥ 1000 nM	≥ 1000 nM
O=C(CCOCCn1cc(C2(Nc3cccc4c3C(=O)N(C3CCC(=O)NC3=O)C4=O)CC2)nn1)NCCOc1ccc2cc(O)c(N3CC(=O)NS3(=O)=O)c(F)c2c1 (centres unmarked) [Example 38]	≥ 1000 nM	≥ 1000 nM
O=C(CCC1CCN(C(=O)CNc2cccc3c2C(=O)N(C2CCC(=O)NC2=O)C3=O)CC1)NCCOc1ccc2cc(O)c(N3CC(=O)NS3(=O)=O)c(F)c2c1 (centres unmarked) [Example 41]	200 to 1000 nM	≥ 1000 nM
O=C(CN1CC(n2cc(CNc3cccc4c3C(=O)N(C3CCC(=O)NC3=O)C4=O)nn2)C1)NCCOc1ccc2cc(O)c(N3CC(=O)NS3(=O)=O)c(F)c2c1 (centres unmarked) [Example 42]	200 to 1000 nM	≥ 1000 nM
O=C(CCOCCC(=O)N1CCN(c2ccc(NC3CCC(=O)NC3=O)cc2)CC1)NCCOc1ccc2cc(O)c(N3CC(=O)NS3(=O)=O)c(F)c2c1 (centres unmarked) [Example 43]	≥ 1000 nM	≥ 1000 nM
O=C(CCOCCOCCn1cc(CNc2cccc3c2C(=O)N(C2CCC(=O)NC2=O)C3=O)nn1)NCCOc1ccc2cc(O)c(N3CC(=O)NS3(=O)=O)c(F)c2c1 (centres unmarked) [Example 44]	≥ 1000 nM	≥ 1000 nM
O=C(CCOCCNC(=O)CNc1cccc2c1CN(C1CCC(=O)NC1=O)C2=O)NCCOc1ccc2cc(O)c(N3CC(=O)NS3(=O)=O)c(F)c2c1 (centres unmarked) [Example 45]	200 to 1000 nM	≥ 1000 nM
O=C(CCOCCOCCNC(=O)CNc1cccc2c1CN(C1CCC(=O)NC1=O)C2=O)NCCOc1ccc2cc(O)c(N3CC(=O)NS3(=O)=O)c(F)c2c1 (centres unmarked) [Example 46]	≥ 1000 nM	≥ 1000 nM
O=C(CCCCCn1cc(CNc2cccc3c2C(=O)N(C2CCC(=O)NC2=O)C3=O)nn1)NCCOc1ccc2cc(O)c(N3CC(=O)NS3(=O)=O)c(F)c2c1 (centres unmarked) [Example 47]	≥ 1000 nM	≥ 1000 nM
O=C(CCOCCn1cc(CNc2cccc3c2C(=O)N(C2CCC(=O)NC2=O)C3=O)nn1)NCCOc1ccc2cc(O)c(N3CC(=O)NS3(=O)=O)c(F)c2c1 (centres unmarked) [Example 48]	≥ 1000 nM	≥ 1000 nM
O=C1CCC(N2C(=O)c3cccc(NCc4cn(C5CN(CC(=O)Nc6ccc7c(F)c(N8CC(=O)NS8(=O)=O)c(O)cc7c6)C5)nn4)c3C2=O)C(=O)N1 (centres unmarked) [Example 58]	200 to 1000 nM	≥ 1000 nM
O=C1CCC(N2C(=O)c3ccc(OCc4cn(CCC(=O)Nc5ccc6c(F)c(N7CC(=O)NS7(=O)=O)c(O)cc6c5)nn4)cc3C2=O)C(=O)N1 (centres unmarked) [Example 60]	200 to 1000 nM	200 to 1000 nM
O=C1CCC(N2C(=O)c3cccc(NCc4cccc(C(=O)Nc5ccc6c(F)c(N7CC(=O)NS7(=O)=O)c(O)cc6c5)c4)c3C2=O)C(=O)N1 (centres unmarked) [Example 61]	200 to 1000 nM	≥ 1000 nM
O=C1CCC(N2Cc3c(NCc4cn(CCC(=O)Nc5ccc6c(F)c(N7CC(=O)NS7(=O)=O)c(O)cc6c5)nn4)cccc3C2=O)C(=O)N1 (centres unmarked) [Example 62]	200 to 1000 nM	≥ 1000 nM
O=C1CCC(N2C(=O)c3cccc(NCc4cn(CCOCCOCCC(=O)Nc5ccc6c(F)c(N7CC(=O)NS7(=O)=O)c(O)cc6c5)nn4)c3C2=O)C(=O)N1 (centres unmarked) [Example 63]	200 to 1000 nM	≥ 1000 nM
O=C1CCC(N2C(=O)c3ccc(NCc4cnn(C5CN(C(=O)Nc6ccc7c(F)c(N8CC(=O)NS8(=O)=O)c(O)cc7c6)C5)c4)cc3C2=O)C(=O)N1 (centres unmarked) [Example 64]	200 to 1000 nM	≥ 1000 nM
CC(Nc1cccc2c1C(=O)N(C1CCC(=O)NC1=O)C2=O)c1cn(CCC(=O)Nc2ccc3c(F)c(N4CC(=O)NS4(=O)=O)c(O)cc3c2)nn1 (centres unmarked) [Example 66]	200 to 1000 nM	≥ 1000 nM
O=C1CCC(N2C(=O)c3cccc(NCc4cn(CCC(=O)Nc5ccc6c(F)c(N7CC(=O)NS7(=O)=O)c(O)cc6c5)nn4)c3C2=O)C(=O)N1 (centres unmarked) [Example 68]	200 to 1000 nM	≥ 1000 nM

Further lines, results first:

DC50 (PTPN2 [1])	DC50 (PTPN2 [2])	SMILES
< 10 nM	50 to 200 nM	Cn1nc(C2CCC(=O)NC2=O)c2ccc(C3CCN(CC(=O)Nc4ccc5c(F)c(N6CC(=O)NS6(=O)=O)c(O)cc5c4)CC3)cc21 (centres unmarked) [Example 28, 2-[4-[3-(2,6-dioxo-3-piperidyl)-1-methyl-indazol-6-yl]-1-piperidyl]-N-[5-fluoro-7-hydroxy-6-(1,1,4-trioxo-1,2,5-thiadiazolidin-2-yl)-2-naphthyl]acetamide]
< 10 nM	50 to 200 nM	Cn1c(=O)n(C2CCC(=O)NC2=O)c2ccc(C3CCN(CCNC(=O)c4ccc5c(F)c(N6CC(=O)NS6(=O)=O)c(O)cc5c4)CC3)cc21 (centres unmarked) [Example 29, N-[2-[4-[1-(2,6-dioxo-3-piperidyl)-3-methyl-2-oxo-benzimidazol-5-yl]-1-piperidyl]ethyl]-5-fluoro-7-hydroxy-6-(1,1,4-trioxo-1,2,5-thiadiazolidin-2-yl)naphthalene-2-carboxamide]
≥ 1000 nM	≥ 1000 nM	Cn1c(=O)n(C2CCC(=O)NC2=O)c2ccc(C3CCN(C(=O)CCC(=O)NCCOc4ccc5cc(O)c(N6CC(=O)NS6(=O)=O)c(F)c5c4)CC3)cc21 (centres unmarked) [Example 30]
200 to 1000 nM	≥ 1000 nM	Cn1c(=O)n(C2CCC(=O)NC2=O)c2ccc(C3CCN(C(=O)NCCOc4ccc5cc(O)c(N6CC(=O)NS6(=O)=O)c(F)c5c4)CC3)cc21 (centres unmarked) [Example 31]
200 to 1000 nM	≥ 1000 nM	Cn1c(=O)n(C2CCC(=O)NC2=O)c2cccc(C3CCN(CC(=O)NCCOc4ccc5cc(O)c(N6CC(=O)NS6(=O)=O)c(F)c5c4)CC3)c21 (centres unmarked) [Example 33]
≥ 1000 nM	≥ 1000 nM	Cn1c(=O)n(C2CCC(=O)NC2=O)c2ccc(CCC(=O)NCCOc3ccc4cc(O)c(N5CC(=O)NS5(=O)=O)c(F)c4c3)cc21 (centres unmarked) [Example 34]
200 to 1000 nM	200 to 1000 nM	O=C1CCC(N2Cc3cc(NCC(=O)N4CCC(C(=O)NCCOc5ccc6cc(O)c(N7CC(=O)NS7(=O)=O)c(F)c6c5)CC4)ccc3C2=O)C(=O)N1 (centres unmarked) [Example 35]
≥ 1000 nM	≥ 1000 nM	Cn1c(=O)n(C2CCC(=O)NC2=O)c2cccc(C3CCN(CCOCCC(=O)NCCOc4ccc5cc(O)c(N6CC(=O)NS6(=O)=O)c(F)c5c4)CC3)c21 (centres unmarked) [Example 39]
200 to 1000 nM	≥ 1000 nM	O=C(CN1CCC(n2cc(CNc3cccc4c3C(=O)N(C3CCC(=O)NC3=O)C4=O)nn2)CC1)NCCOc1ccc2cc(O)c(N3CC(=O)NS3(=O)=O)c(F)c2c1 (centres unmarked) [Example 40]
≥ 1000 nM	≥ 1000 nM	Cn1c(=O)n(C2CCC(=O)NC2=O)c2ccc(C3CCN(CCNc4ccc5c(F)c(N6CC(=O)NS6(=O)=O)c(O)cc5c4)CC3)cc21 (centres unmarked) [Example 52]
200 to 1000 nM	≥ 1000 nM	Cn1c(=O)n(C2CCC(=O)NC2=O)c2ccc(NC3CCN(CCNc4ccc5c(F)c(N6CC(=O)NS6(=O)=O)c(O)cc5c4)CC3)cc21 (centres unmarked) [Example 53]
200 to 1000 nM	≥ 1000 nM	Cn1c(=O)n(C2CCC(=O)NC2=O)c2ccc(C3CCN(C(=O)CNc4ccc5c(F)c(N6CC(=O)NS6(=O)=O)c(O)cc5c4)CC3)cc21 (centres unmarked) [Example 54]
200 to 1000 nM	≥ 1000 nM	O=C1CCC(Nc2ccc(C3CCN(CC(=O)Nc4ccc5c(F)c(N6CC(=O)NS6(=O)=O)c(O)cc5c4)CC3)c(F)c2)C(=O)N1 (centres unmarked) [Example 55]
≥ 1000 nM	200 to 1000 nM	Cn1c(=O)n(C2CCC(=O)NC2=O)c2ccc(N3CCC4(CC3)CN(C(=O)c3ccc5c(F)c(N6CC(=O)NS6(=O)=O)c(O)cc5c3)C4)cc21 (centres unmarked) [Example 56]
200 to 1000 nM	≥ 1000 nM	O=C1CCC(N2Cc3c(NCc4cn(C5CN(C(=O)Nc6ccc7c(F)c(N8CC(=O)NS8(=O)=O)c(O)cc7c6)C5)nn4)cccc3C2=O)C(=O)N1 (centres unmarked) [Example 57]
200 to 1000 nM	200 to 1000 nM	O=C1CCC(N2Cc3c(NCC(=O)N4CCC(C(=O)Nc5ccc6c(F)c(N7CC(=O)NS7(=O)=O)c(O)cc6c5)CC4)cccc3C2=O)C(=O)N1 (centres unmarked) [Example 65]
200 to 1000 nM	≥ 1000 nM	O=C1CCC(N2C(=O)c3cccc(NCc4cn(C5CCN(CC(=O)Nc6ccc7c(F)c(N8CC(=O)NS8(=O)=O)c(O)cc7c6)CC5)nn4)c3C2=O)C(=O)N1 (centres unmarked) [Example 67]
